# Entries after “also recorded” stand apart in the source; their conditions may differ. Where two headings read alike, the source gives them in different places.
# Assays:
# SzeaOBP28 = SzeaOBP28 (Sitophilus zeamais, UniProt A0A4V1GPX2); test: Fluorescence competitive binding assay (1-NPN probe) with recombinant SzeaOBP28; settings: for binding to SzeaOBP28, in words: fluorescence competitive binding
# Description: (§1) Emission fluorescence spectra were recorded on a Fluoromax-4500 fluorescence spectrophotometer (Hitachi, Tokyo, Japan) at room temperature in right-angle configuration, with a 1 cm light-path quartz cuvette and 5 nm slits for both excitation and emission. The protein was dissolved in 50 mM Tris-HCl buffer (pH 7.4), and ligands were added as 1 mM methanol solutions. A methanol solution of N-Phenyl-1-naphthylamine (1-NPN) (1 mM) was used as the fluorescent probe, and chromatography-grade methanol was used as the solvent. For determination of the binding constants of the SzeaOBPs with the probe, the excitation wavelength was set at 337 nm, and the emission wavelength was increased from 370 to 500 nm for scanning. The target SzeaOBP proteins were diluted in Tris-HCl buffer (pH 7.4) to a final concentration of 2 μM. After the sample was added, the fluorescence intensity was allowed to stabilize (approximately 15 s), and the maximum fluorescence intensity was recorded; the binding constant between the protein and probe was determined. This process was repeated three times for each sample. Then, the ligands (odorant standard samples) were diluted with pure methanol for competitive binding analysis. The final concentration of each ligand was […]. The final concentration of ligands in the colorimetric dish increased by 2 μM upon adding the ligands one by one. […] The binding constants between the target SzeaOBP proteins and the ligands were determined. The fluorescence intensity was measured by adding 50 mM Tris-HCl buffer, SzeaOBP protein, and the fluorescence probe 1-NPN to the colorimetric dish for fluorescence measurement. The final concentration was 2 μM. When the fluorescence intensity was stable, the maximum fluorescence intensity was recorded, and then the ligands dissolved in methanol were added to the colorimetric dish one by one. The concentration increased from 2 μM, and the changes in fluorescence intensity were recorded. Each measurement was repeated three times.
# (§2) To calculate the binding constants, the fluorescence intensity and ligand concentration were plotted using GraphPad Prism 5. Assuming that 1-NPN binds to the protein at a 1:1 ratio and that the protein was 100% active, the curve was linearized using a Scatchard plot.
# SzeaOBP1 = SzeaOBP1 (Sitophilus zeamais, UniProt A0A4P9CZ78); test: Fluorescence competitive binding assay (1-NPN probe) with recombinant SzeaOBP1; settings: for binding to SzeaOBP1, in words: fluorescence competitive binding
# Description: as §1, §2
# adult S. zeamais = test: Behavioural experiment in a Y-tube olfactometer, normal adults; type: in vivo, Sitophilus zeamais; settings: normal insects, 10 min observation
# Description: The behavioral experiments were designed to test the results for selected odorants. The odorant compounds used in behavioral experiments are from Table 1. To avoid the effects of temperature and light on the experiment, the evaluations were performed in a constant temperature and humidity (CTH) room at 28 ± 1 °C and 80% relative humidity under dim light supplied by a red fluorescent tube with no natural lighting. A Y-tube olfactometer system that was previously described by Yusuf and Takabayashi was used to test the attractiveness of different odorant treatments to adult maize weevils. The system comprised a central tube (10 cm long) and two lateral arms (each 15 cm long and 15 mm wide). The angles between the two arms were 75°. Each arm was connected to a glass chamber (200 mL capacity) holding the different odorants. The different parts of the device were connected in the following order: air pump, activated carbon filter, distilled water humidifier, odorant source device, gas flow meter, and Y-tube olfactometer. The parts were connected by Teflon tubes. Airflow through both arms was generated by applying air pressure, and the air was purified using a charcoal-filled gas wash bottle. The airflow through the arms of the Y-tube (150 mL/min/arm) was adjusted by using flow metres, which were positioned between the flasks and the Y-tube. A clean Y-tube was used for each test to avoid carryover of odorants.
# Before bioassays, according to the experimental requirements, the odorant source was placed in the odorant source device, which was then ventilated for 15 min so that the odorant filled the tube to ensure accuracy of the test results. The antennae and appendages of the selected insects were verified to be intact, and the insects were confirmed to be active. The insects were introduced from the base of the main arm of the Y-tube olfactometer. The selected odorant was used for the treatment group, and a blank was used for the control group. A single adult S. zeamais insect was introduced into the Y-tube olfactometer at the entrance of the stem, with a maximum observation duration of 10 min per beetle, and the responses were considered positive when the insects reached at least 2 cm along the arm connected to the test chambers. […] Insects were used only once and then discarded. Each odorant was used to test 30 adult maize weevils, and the number of male and female insects per test was the same. Three groups of experiments were repeated for three times.
# [1] = calculated from IC50 with K1-NPN 7.214 μM, protein and 1-NPN 2 μM, Tris-HCl pH 7.4, read-out: Ki SzeaOP28
# [2] = displacement of 1-NPN, protein and 1-NPN 2 μM, Tris-HCl pH 7.4, read-out: IC50 SzeaOP28
# [3] = calculated from IC50 with K1-NPN 8.590 μM, protein and 1-NPN 2 μM, Tris-HCl pH 7.4, read-out: Ki SzeaOBP1
# [4] = displacement of 1-NPN, protein and 1-NPN 2 μM, Tris-HCl pH 7.4, read-out: IC50 SzeaOBP1
# Chain of SzeaOBP1 (A0A4P9CZ78 entry or part of it): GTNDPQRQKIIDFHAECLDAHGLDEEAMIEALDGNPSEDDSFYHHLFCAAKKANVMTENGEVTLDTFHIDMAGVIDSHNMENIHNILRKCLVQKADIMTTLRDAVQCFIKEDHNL
# Chain of SzeaOBP28 (A0A4V1GPX2 entry or part of it): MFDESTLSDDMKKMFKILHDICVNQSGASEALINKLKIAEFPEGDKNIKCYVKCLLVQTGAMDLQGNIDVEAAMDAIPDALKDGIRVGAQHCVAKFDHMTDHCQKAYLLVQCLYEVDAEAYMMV
Structure (SMILES),Ki (SzeaOBP28; [1]) [µM],IC50 (SzeaOBP28; [2]) [µM],Ki (SzeaOBP1; [3]) [µM],IC50 (SzeaOBP1; [4]) [µM],further results
CCCCCC=O [1-Pentanecarbaldehyde],–,–,–,–,IC50 (SzeaOBP28): 59.4 ± 1.21 µM; Ki (SzeaOBP28): 48.7 ± 0.852 µM; IC50 (SzeaOBP1): 6.07 ± 0.154 µM; Ki (SzeaOBP1): 5.18 ± 0.132 µM
CCC(C)C=O (stereo not drawn) [2-Methylbutyraldehyde],> 49.2,> 60,4.2 ± 0.087,4.92 ± 0.102,behavioural response (attraction) of male and female adults vs blank control (adult S. zeamais): Significant differences
CC(C)CC=O [3-Methylbutanal],> 49.2,> 60,6.51 ± 0.163,7.62 ± 0.191,–
COc1cc(C=O)ccc1O [4-Hydroxy-3-methoxybenzaldehyde],–,–,–,–,"IC50 (SzeaOBP28): 24.7 ± 2.34 µM; Ki (SzeaOBP28): 20.2 ± 1.92 µM; binding to SzeaOBP28, in words (SzeaOBP28): pronounced binding affinity; behavioural response (attraction) of male and female adults vs blank control (adult S. zeamais): responded strongly; also recorded: stimulated activity in a significantly higher number of normal male and female weevils than the control treatment; IC50 (SzeaOBP1): 4.37 ± 0.203 µM; Ki (SzeaOBP1): 3.73 ± 0.173 µM"
CC(=O)CCC=C(C)C [6-Methyl-5-hepten-2-one],–,–,–,–,IC50 (SzeaOBP28): 45.8 ± 1.23 µM; Ki (SzeaOBP28): 37.6 ± 1.01 µM; IC50 (SzeaOBP1): 6.5 ± 0.15 µM; Ki (SzeaOBP1): 5.55 ± 0.128 µM
CC1=CC[C@@H]2C[C@H]1C2(C)C [(+)-a-Pinene],> 49.2,> 60,> 51.2,> 60,"binding to SzeaOBP28, in words (SzeaOBP28): did not bind; binding to SzeaOBP1, in words (SzeaOBP1): did not bind"
CC(=O)O [Acetic acid (glacial)],> 49.2,> 60,15.7 ± 0.717,18.4 ± 0.84,–
CC(C)=O [Acetone],39.8 ± 0.731,48.6 ± 0.861,4.54 ± 0.172,5.32 ± 0.201,–
O=Cc1ccccc1 [Benzaldehyde],–,–,–,–,IC50 (SzeaOBP28): > 60 µM; Ki (SzeaOBP28): > 49.2 µM; IC50 (SzeaOBP1): 5.2 ± 0.092 µM; Ki (SzeaOBP1): 4.44 ± 0.079 µM
"COCCOC(=O)c1ccccc1C(=O)OCCOC [Bis(methylglycol) phthalate, Bis(2-methoxyethyl) phthalate]",–,–,–,–,IC50 (SzeaOBP28): 38.87 ± 0.2 µM; Ki (SzeaOBP28): 31.86 ± 0.164 µM; IC50 (SzeaOBP1): 4.76 ± 0.147 µM; Ki (SzeaOBP1): 4.07 ± 0.125 µM
CCCCCCCCO [Capryl alcohol],> 49.2,> 60,6.67 ± 0.199,7.81 ± 0.233,–
CCCCCCCCCCCCCCCCO [Cetanol],> 49.2,> 60,2.75 ± 0.139,3.22 ± 0.162,"behavioural response (attraction) of male and female adults vs blank control (adult S. zeamais): Significant differences; binding to SzeaOBP1, in words (SzeaOBP1): extremely high binding affinity"
CCCCCCCCCC=O [Decanal],> 49.2,> 60,> 51.2,> 60,"binding to SzeaOBP28, in words (SzeaOBP28): did not bind; binding to SzeaOBP1, in words (SzeaOBP1): did not bind"
CCCCCCC=O [Heptaldehyde],> 49.2,> 60,4.87 ± 0.111,5.71 ± 0.13,–
CC(C)C=O [Isobutyraldehyde],> 49.2,> 60,4.26 ± 0.138,4.99 ± 0.162,–
"CCCCCCO [Ligand 1-Hexanol, 1-Hexanol]",> 49.2,> 60,4.67 ± 0.159,5.47 ± 0.186,–
"c1ccc(Nc2cccc3ccccc23)cc1 [Ligand 1-NPN, N-Phenyl-1-naphthylamine, reference compound]",–,–,–,–,Kd (SzeaOBP28): 7.21 µM; Kd (SzeaOBP1): 8.59 µM
"CCCCCCCCCO [Ligand 1-Nonanol, 1-Nonanol]",> 49.2,> 60,6.94 ± 0.234,8.13 ± 0.274,–
"CCCC(C)=O [Ligand 2-Pentanone, 2-Pentanone]",–,–,–,–,IC50 (SzeaOBP28): > 60 µM; Ki (SzeaOBP28): > 49.2 µM; IC50 (SzeaOBP1): 11.6 ± 0.312 µM; Ki (SzeaOBP1): 9.92 ± 0.267 µM
CCCCC/C=C\C/C=C\CCCCCCCC(=O)O [Linoleic acid],> 49.2,> 60,> 51.2,> 60,"binding to SzeaOBP28, in words (SzeaOBP28): did not bind; binding to SzeaOBP1, in words (SzeaOBP1): did not bind"
Cc1occc(=O)c1O [Maltol (3-hydroxy-2-methyl-4-pyrone)],> 49.2,> 60,5.28 ± 0.333,6.18 ± 0.39,–
C=CC(=C)CCC=C(C)C [Myrcene (stabilized with BHT)],> 49.2,> 60,30.3 ± 0.798,35.5 ± 0.931,–
"CCCCCCCCCCCCCCCC [N-Hexadecane, N-hexadecane]",> 49.2,> 60,> 51.2,> 60,–
CCCCCCCCC=O [Nonanal],48.2 ± 1.1,58.9 ± 1.34,4.42 ± 0.095,5.18 ± 0.111,–
"CCCCCCCCCCCCCCCC(=O)O [Palmitic Acid, Palmitic acid]",40.8 ± 1.41,49.7 ± 1.72,24.2 ± 1.78,28.3 ± 2.08,–
CCCCCCCCCCCCCCC [Pentadecane],> 49.2,> 60,> 51.2,> 60,–
CCCCC=O [Valeraldehyde],> 49.2,> 60,4.88 ± 0.103,5.71 ± 0.121,behavioural response (attraction) of male and female adults vs blank control (adult S. zeamais): responded strongly
CCCCCCCC=O [n-Octanaldehyde],> 49.2,> 60,3.22 ± 0.103,3.77 ± 0.12,behavioural response (attraction) of male and female adults vs blank control (adult S. zeamais): no obvious effect

# — article PMC6920827, “Characterization of the Expression and Functions of Two Odorant-Binding Proteins of Sitophilus zeamais Motschulsky (Coleoptera: Curculionoidea)” (Insects, 2019)
